Reference: patent publication US10167262B2, “Herbicidal substituted 3-arylpyrazoles” (FMC CORPORATION, priority 2014, dated 2019)

What was measured:
Assay in all cases: Test E pre-/postemergence greenhouse test, plant response rating 0-100
Assay type in all cases: in vivo
[1] = system: barnyardgrass (Echinochloa crus-galli); settings: Postemergence, scale 0 to 100
Outline: (§1)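 Greenhouse response on a 0 (none) to 100 (complete control) scale, assessed 14 to 21 days post-treatment. Soil-applied preemergence on silt loam; foliar postemergence on plants 2–18 cm high.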

[2] = system: sandbur (southern sandbur, Cenchrus echinatus); settings: Postemergence, scale 0 to 100
Outline: as §1

[3] = system: palmer pigweed (Amaranthus palmeri); settings: Postemergence, scale 0 to 100
Outline: as §1

[4] = system: arrowleaf sida (Sida rhombifolia); settings: Postemergence
Outline: as §1

[5] = system: dayflower (Virginia (VA) dayflower, Commelina virginica); settings: Postemergence, scale 0 to 100
Outline: as §1

[6] = system: wild poinsettia (Euphorbia heterophylla); settings: Postemergence, scale 0 to 100
Outline: as §1

[7] = system: Italian ryegrass (Lolium multiflorum); settings: Postemergence, scale 0 to 100
Outline: as §1

[8] = system: waterhemp (common waterhemp, Amaranthus rudis); settings: Postemergence, scale 0 to 100
Outline: as §1

[9] = system: Brazilian crabgrass (Digitaria horizontalis); settings: Postemergence, scale 0 to 100
Outline: as §1

corn (Zea mays) = settings: Postemergence, scale 0 to 100
Outline: as §1

soybean (Glycine max) = settings: Postemergence, scale 0 to 100
Outline: as §1

[10] = system: hairy beggarticks (Bidens pilosa); settings: Postemergence, scale 0 to 100
Outline: as §1

## Fc1cccc(NN=C(c2ccccc2)c2c[nH]nc2-c2cc(Cl)cc(Cl)c2)c1 [Compound 58]
[1]; 31 g ai/ha
  Plant response rating, Barnyardgrass: 0
[1]; 62 g ai/ha
  Plant response rating, Barnyardgrass: 0
[1]; 125 g ai/ha
  Plant response rating, Barnyardgrass: 0
[1]; 250 g ai/ha
  Plant response rating, Barnyardgrass: 0
[1]; 500 g ai/ha
  Plant response rating, Barnyardgrass: 0
[2]; 31 g ai/ha
  Plant response rating, Sandbur: 0
[2]; 62 g ai/ha
  Plant response rating, Sandbur: 0
[2]; 125 g ai/ha
  Plant response rating, Sandbur: 0
[2]; 250 g ai/ha
  Plant response rating, Sandbur: 0
[2]; 500 g ai/ha
  Plant response rating, Sandbur: 0
[3]; 31 g ai/ha
  Plant response rating, Pigweed, Palmer: 80
[3]; 62 g ai/ha
  Plant response rating, Pigweed, Palmer: 80
[3]; 125 g ai/ha
  Plant response rating, Pigweed, Palmer: 95
[3]; 250 g ai/ha
  Plant response rating, Pigweed, Palmer: 95
[3]; 500 g ai/ha
  Plant response rating, Pigweed, Palmer: 100
[4]; 31 g ai/ha, scale 0 to 100
  Plant response rating, Arrowleaf Sida: 50
[4]; 62 g ai/ha, scale 0 to 100
  Plant response rating, Arrowleaf Sida: 50
[4]; 125 g ai/ha, scale 0 to 100
  Plant response rating, Arrowleaf Sida: 60
[4]; 250 g ai/ha, scale 0 to 100
  Plant response rating, Arrowleaf Sida: 75
[4]; 500 g ai/ha, scale 0 to 100 (0 no effect, 100 complete control)
  Plant response rating, Arrowleaf Sida: 80
[5]; 31 g ai/ha
  Plant response rating, Dayflower, VA: 0
[5]; 62 g ai/ha
  Plant response rating, Dayflower, VA: 0
[5]; 125 g ai/ha
  Plant response rating, Dayflower, VA: 0
[5]; 250 g ai/ha
  Plant response rating, Dayflower, VA: 0
[5]; 500 g ai/ha
  Plant response rating, Dayflower, VA: 0
[6]; 31 g ai/ha
  Plant response rating, Poinsettia, Wild: 0
[6]; 62 g ai/ha
  Plant response rating, Poinsettia, Wild: 0
[6]; 125 g ai/ha
  Plant response rating, Poinsettia, Wild: 0
[6]; 250 g ai/ha
  Plant response rating, Poinsettia, Wild: 0
[6]; 500 g ai/ha
  Plant response rating, Poinsettia, Wild: 0
[7]; 31 g ai/ha
  Plant response rating, Ryegrass, Italian: 0
[7]; 62 g ai/ha
  Plant response rating, Ryegrass, Italian: 0
[7]; 125 g ai/ha
  Plant response rating, Ryegrass, Italian: 0
[7]; 250 g ai/ha
  Plant response rating, Ryegrass, Italian: 0
[7]; 500 g ai/ha
  Plant response rating, Ryegrass, Italian: 0
[8]; 31 g ai/ha
  Plant response rating, Waterhemp: 80
[8]; 62 g ai/ha
  Plant response rating, Waterhemp: 90
[8]; 125 g ai/ha
  Plant response rating, Waterhemp: 95
[8]; 250 g ai/ha
  Plant response rating, Waterhemp: 100
[8]; 500 g ai/ha
  Plant response rating, Waterhemp: 100
[9]; 31 g ai/ha
  Plant response rating, Crabgrass, Brazil: 0
[9]; 62 g ai/ha
  Plant response rating, Crabgrass, Brazil: 0
[9]; 125 g ai/ha
  Plant response rating, Crabgrass, Brazil: 0
[9]; 250 g ai/ha
  Plant response rating, Crabgrass, Brazil: 0
[9]; 500 g ai/ha
  Plant response rating, Crabgrass, Brazil: 10
Corn (Zea mays); 31 g ai/ha
  Plant response rating, Corn: 0
Corn (Zea mays); 62 g ai/ha
  Plant response rating, Corn: 0
Corn (Zea mays); 125 g ai/ha
  Plant response rating, Corn: 0
Corn (Zea mays); 250 g ai/ha
  Plant response rating, Corn: 0
Corn (Zea mays); 500 g ai/ha
  Plant response rating, Corn: 0
Soybean (Glycine max); 31 g ai/ha
  Plant response rating, Soybean: 0
Soybean (Glycine max); 62 g ai/ha
  Plant response rating, Soybean: 0
Soybean (Glycine max); 125 g ai/ha
  Plant response rating, Soybean: 0
Soybean (Glycine max); 250 g ai/ha
  Plant response rating, Soybean: 0
Soybean (Glycine max); 500 g ai/ha
  Plant response rating, Soybean: 0
[10]; 31 g ai/ha
  Plant response rating, Beggarticks: 70
[10]; 62 g ai/ha
  Plant response rating, Beggarticks: 80
[10]; 125 g ai/ha
  Plant response rating, Beggarticks: 80
[10]; 250 g ai/ha
  Plant response rating, Beggarticks: 95
[10]; 500 g ai/ha
  Plant response rating, Beggarticks: 100
